biological target: T1, human S6K1 (RPS6KB1) protein, residues 1–421 with the T412E mutation (Homo sapiens, UniProt P23443, T412E); experiment: Kinase mobility shift assay; assay type: biochemical; details: S6K1 residues 1–421, T412E mutation; 2 nM enzyme; 30 min pre-incubation; ATP 0.5 mM; FL-Peptide 26 1.5 μM
T1 construct: the human S6K1 (RPS6KB1) protein, residues 1–421 with the T412E mutation; purchased Carna Biosciences (Kobe, Japan)
Experimental: The mobility shift assay was performed as reported. Briefly, the reaction buffer consisted of 50 mM Hepes (pH 7.4), containing 10 mM MgCl2, 0.01 %(w/v) Brij-35, 1 mM dithiothreitol (DTT), 1 %(v/v) Protease Inhibitor Cocktail Set V [Calbiochem (EMD Millipore), Darmstadt, Germany], 1 %(v/v) Phosphatase Inhibitor Cocktail Set III [Calbiochem (EMD Millipore), Darmstadt, Germany], and 0.6 %(v/v) DMSO. […] The S6K1 protein (final concentration of 2 nM) in the reaction buffer was first incubated with different concentrations of the compounds (0–10 μM) for 30 min. […] The kinase reactions were performed at room temperature, and stopped by the addition of termination buffer [50 mM Hepes buffer (pH 7.4), containing 140 mM EDTA and 0.01 %(w/v) Brij-35]. The phosphorylated and unphosphorylated peptides thus obtained were separated and quantified with a Lab-Chip EZ Reader II (PerkinElmer, MA). Data were fitted using a sigmoidal dose–response regression algorithm in GraphPad Prism (GraphPad Software, La Jolla, CA).

T1 sequence (P23443 1-421 T412E): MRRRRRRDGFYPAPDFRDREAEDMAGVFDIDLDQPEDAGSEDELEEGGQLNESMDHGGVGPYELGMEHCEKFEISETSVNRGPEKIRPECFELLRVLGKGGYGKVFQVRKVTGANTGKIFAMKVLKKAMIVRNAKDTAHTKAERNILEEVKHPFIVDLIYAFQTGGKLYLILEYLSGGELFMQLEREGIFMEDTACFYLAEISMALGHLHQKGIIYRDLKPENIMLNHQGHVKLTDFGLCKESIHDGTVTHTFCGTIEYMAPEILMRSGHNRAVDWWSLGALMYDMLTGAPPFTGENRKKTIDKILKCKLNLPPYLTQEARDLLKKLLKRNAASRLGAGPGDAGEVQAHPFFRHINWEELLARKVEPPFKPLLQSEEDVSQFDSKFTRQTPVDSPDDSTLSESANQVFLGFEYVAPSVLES

Going from `c1ccc2[nH]c(C3CCN(c4ncnc5[nH]ncc45)CC3)nc2c1` [Compound F108, 4-[4-(1H-benzimidazol-2-yl)piperidin-1-yl]-1H-pyrazolo[3,4-d]pyrimidine] to `C1=C(c2c[nH]c3ccccc23)CCN(c2ncnc3[nH]ncc23)C1` [Compound F109, 4-[4-(1H-indol-3-yl)-3,6-dihydropyridin-1(2H)-yl]-1H-pyrazolo[3,4-d]pyrimidine], the IC50 falls from 81 nM to 33 nM (2.5-fold).

Compared with `NS(=O)(=O)c1ccc(NC(=O)COC(=O)c2c3c(nc4ccccc24)CCCCC3)cc1` [Compound F176, 2-oxo-2-[(4-sulfamoylphenyl)amino]ethyl 7,8,9,10-tetrahydro-6H-cyclohepta[b]quinoline-11-carboxylate], `CC1CCc2nc3ccccc3c(C(=O)OC(C)C(=O)Nc3ccc(S(N)(=O)=O)cc3)c2C1` (centres unmarked) [Compound F177, 1-oxo-1-[(4-sulfamoylphenyl)amino]propan-2-yl-2-methyl-1,2,3,4-tetrahydroacridine-9-carboxylate] is 2.4-fold higher in IC50: 232 nM for the first, 567 nM for the second.

Work on `O=C(Nc1cccc(C(F)(F)F)c1)C1CCN(c2ncnc3[nH]cnc23)CC1` [Compound F179, 1-(9H-purin-6-yl)-N-[3-(trifluoromethyl)phenyl]piperidine-4-carboxamide] yielded an IC50 of 206 nM.

Reference: PMC4125821, “Crystal structures of the S6K1 kinase domain in complexes with inhibitors” (Journal of Structural and Functional Genomics, 2014)
